How the values were obtained:
Assay in all cases: Radiometric kinase panel
Format in all cases: biochemical
ARK5 = molecular target: T1, ARK5 (Homo sapiens, UniProt O60285)
T1 construct: either as full-length or enzymatically active fragments; purchased ProQinase GmbH (Reaction Biology); host or cells: Sf9 insect cells or E. coli (not specified per kinase)
Procedure: (§1) The compounds 1-5 (see Table 1) were assayed for kinase activity at ProQinase (ProQinase GmbH, Reaction Biology; Freiburg, Germany) using their commercially available radiometric kinase assay services. Briefly, the compounds were provided as solids and were dissolved to 1×10^−03 M/100% DMSO stock solutions on the day of assay. All protein kinases were provided by ProQinase and were expressed in Sf9 insect cells or in E. coli as recombinant GST-fusion proteins or His-tagged proteins, either as full-length or enzymatically active fragments. All kinases were produced from human cDNAs and purified by either GSH-affinity chromatography or immobilized metal. The purity of the protein kinases was examined by SDS-PAGE/Coomassie staining, the identity was checked by mass spectroscopy. A radiometric protein kinase assay (^33PanQinase® Activity Assay) was used for measuring the kinase activity of the protein kinase. All kinase assays were performed in 96-well FlashPlates™ from PerkinElmer (Boston, Mass., USA) in a 50 microliter reaction volume. The reaction cocktail was pipetted in four steps in the following order: 1) 25 microliter of assay buffer (standard buffer/[gamma-^33P]-ATP); 2) 10 microliter of ATP solution (in H2O); 3) 5 microliter of test compound (in 10% DMSO); 4) 10 microliter of enzyme/substrate mixture.
(§2) Compound 4 was analyzed for selectivity against a panel of other kinases at ProQinase using their commercially available radiometric kinase assay services and the methods described in Example 1.

CAMK2G = molecular target: T2, CAMK2G (Homo sapiens, UniProt Q13555)
T2 construct: either as full-length or enzymatically active fragments; purchased ProQinase GmbH (Reaction Biology)
Procedure: as §1, §2

CDK1/CycE1 = molecular target: T3, CDK1/CycE1 (Homo sapiens, UniProt P06493)
T3 construct: either as full-length or enzymatically active fragments; purchased ProQinase GmbH (Reaction Biology); host or cells: Sf9 insect cells or E. coli
T3 sequence (P06493 whole entry, the tested form may be a part): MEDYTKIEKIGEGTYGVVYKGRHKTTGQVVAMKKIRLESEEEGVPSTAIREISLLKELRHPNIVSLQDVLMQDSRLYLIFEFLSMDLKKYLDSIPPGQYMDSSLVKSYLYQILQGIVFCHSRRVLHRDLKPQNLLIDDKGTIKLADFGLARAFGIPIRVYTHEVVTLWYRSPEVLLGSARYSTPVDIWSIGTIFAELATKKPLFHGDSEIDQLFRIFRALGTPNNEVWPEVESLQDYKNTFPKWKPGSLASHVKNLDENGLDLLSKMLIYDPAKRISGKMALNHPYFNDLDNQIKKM
T3 sequence (P24864 whole entry partner, the tested form may be a part): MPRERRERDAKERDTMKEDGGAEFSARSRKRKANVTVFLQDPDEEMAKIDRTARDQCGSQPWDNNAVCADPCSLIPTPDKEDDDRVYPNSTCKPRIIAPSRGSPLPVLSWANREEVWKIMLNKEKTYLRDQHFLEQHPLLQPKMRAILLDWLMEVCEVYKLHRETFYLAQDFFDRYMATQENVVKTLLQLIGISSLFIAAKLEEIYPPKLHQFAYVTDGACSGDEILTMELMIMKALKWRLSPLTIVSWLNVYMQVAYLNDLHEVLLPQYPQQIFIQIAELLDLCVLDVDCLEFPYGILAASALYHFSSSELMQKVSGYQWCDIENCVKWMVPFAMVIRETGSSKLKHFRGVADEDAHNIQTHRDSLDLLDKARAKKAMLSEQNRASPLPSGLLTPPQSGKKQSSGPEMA
Procedure: as §1, §2

CDK6/CycD3 = molecular target: T4, CDK6/CycD3 (Homo sapiens, UniProt Q00534)
T4 construct: either as full-length or enzymatically active fragments; purchased ProQinase GmbH (Reaction Biology); host or cells: Sf9 insect cells or E. coli
Procedure: as §1, §2

DDR2 = molecular target: T5, DDR2 (Homo sapiens, UniProt Q16832)
T5 construct: either as full-length or enzymatically active fragments; purchased ProQinase GmbH (Reaction Biology)
Procedure: as §1, §2

EPHB2 = molecular target: T6, EPHB2 (Homo sapiens, UniProt P29323)
T6 construct: purchased ProQinase GmbH (Reaction Biology); host or cells: Sf9 insect cells or E. coli (not specified per kinase)
Procedure: as §1, §2

FGFR1 = molecular target: T7, FGFR1 (Homo sapiens, UniProt P11362)
T7 construct: either as full-length or enzymatically active fragments; purchased ProQinase GmbH (Reaction Biology)
Procedure: as §1, §2

FRK = molecular target: T8, FRK (Homo sapiens, UniProt P42685)
T8 construct: either as full-length or enzymatically active fragments; purchased ProQinase GmbH (Reaction Biology)
Procedure: as §1, §2

GRK7 = molecular target: T9, GRK7 (Homo sapiens, UniProt Q8WTQ7)
T9 construct: either as full-length or enzymatically active fragments; purchased ProQinase GmbH (Reaction Biology)
Procedure: as §1, §2

HIPK2 = molecular target: T10, HIPK2 (Homo sapiens, UniProt Q9H2X6)
T10 construct: purchased ProQinase GmbH (Reaction Biology)
Procedure: as §1, §2

IGF1R = molecular target: T11, IGF1R (Homo sapiens, UniProt P08069)
T11 construct: either as full-length or enzymatically active fragments; purchased ProQinase GmbH (Reaction Biology); host or cells: Sf9 insect cells or E. coli
Procedure: as §1, §2

IKKepsilon = molecular target: T12, IKKepsilon (Homo sapiens, UniProt Q14164)
T12 construct: either as full-length or enzymatically active fragments; purchased ProQinase GmbH (Reaction Biology)
Procedure: as §1, §2

INSRR = molecular target: T13, INSRR (Homo sapiens, UniProt P14616)
T13 construct: either as full-length or enzymatically active fragments; purchased ProQinase GmbH (Reaction Biology)
Procedure: as §1, §2

JNK1 = molecular target: T14, JNK1 (Homo sapiens, UniProt P45983)
T14 construct: either as full-length or enzymatically active fragments; purchased ProQinase GmbH (Reaction Biology)
T14 sequence (P45983 whole entry, the tested form may be a part): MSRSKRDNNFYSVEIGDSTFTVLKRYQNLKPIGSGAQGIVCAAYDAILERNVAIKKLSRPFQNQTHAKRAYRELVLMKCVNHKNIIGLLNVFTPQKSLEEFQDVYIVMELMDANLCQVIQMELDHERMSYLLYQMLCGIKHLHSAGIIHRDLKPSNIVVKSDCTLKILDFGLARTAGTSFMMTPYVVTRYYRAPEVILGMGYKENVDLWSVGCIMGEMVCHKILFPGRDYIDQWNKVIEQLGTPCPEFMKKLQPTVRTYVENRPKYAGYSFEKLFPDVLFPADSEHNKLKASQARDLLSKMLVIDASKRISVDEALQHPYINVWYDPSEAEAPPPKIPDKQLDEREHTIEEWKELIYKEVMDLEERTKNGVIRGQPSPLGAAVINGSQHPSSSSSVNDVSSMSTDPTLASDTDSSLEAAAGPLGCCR
Procedure: as §1, §2

LIMK2 = molecular target: T15, LIMK2 (Homo sapiens, UniProt P53671)
T15 construct: either as full-length or enzymatically active fragments; purchased ProQinase GmbH (Reaction Biology)
Procedure: as §1, §2

MAP3K11 = molecular target: T16, MAP3K11 (Homo sapiens, UniProt Q16584)
T16 construct: either as full-length or enzymatically active fragments; purchased ProQinase GmbH (Reaction Biology)
T16 sequence (Q16584 whole entry, the tested form may be a part): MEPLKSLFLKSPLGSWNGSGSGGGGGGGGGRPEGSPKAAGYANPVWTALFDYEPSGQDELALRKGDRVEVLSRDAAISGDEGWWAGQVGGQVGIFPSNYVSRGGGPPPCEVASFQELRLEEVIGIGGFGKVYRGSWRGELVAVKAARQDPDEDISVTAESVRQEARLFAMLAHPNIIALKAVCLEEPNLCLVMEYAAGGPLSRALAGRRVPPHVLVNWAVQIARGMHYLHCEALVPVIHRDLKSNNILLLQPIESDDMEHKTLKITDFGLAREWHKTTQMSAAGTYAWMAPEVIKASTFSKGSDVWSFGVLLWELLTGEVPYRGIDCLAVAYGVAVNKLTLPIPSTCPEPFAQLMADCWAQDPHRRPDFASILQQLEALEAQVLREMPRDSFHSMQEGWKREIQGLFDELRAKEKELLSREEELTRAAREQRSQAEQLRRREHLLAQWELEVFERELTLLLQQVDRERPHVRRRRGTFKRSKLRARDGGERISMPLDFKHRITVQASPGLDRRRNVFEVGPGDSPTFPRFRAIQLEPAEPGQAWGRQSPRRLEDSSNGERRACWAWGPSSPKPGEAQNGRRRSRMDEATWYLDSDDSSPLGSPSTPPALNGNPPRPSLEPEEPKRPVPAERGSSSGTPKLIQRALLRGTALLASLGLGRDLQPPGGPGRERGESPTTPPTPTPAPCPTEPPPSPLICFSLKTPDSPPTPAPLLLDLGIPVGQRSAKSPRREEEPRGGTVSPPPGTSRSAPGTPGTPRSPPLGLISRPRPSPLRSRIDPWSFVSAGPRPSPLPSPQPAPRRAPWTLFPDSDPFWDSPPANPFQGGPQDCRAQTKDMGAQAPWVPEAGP
Procedure: as §1, §2

MAP3K9 = molecular target: T17, MAP3K9 (Homo sapiens, UniProt P80192)
T17 construct: either as full-length or enzymatically active fragments; purchased ProQinase GmbH (Reaction Biology)
Procedure: as §1, §2

PAK3 = molecular target: T18, PAK3 (Homo sapiens, UniProt O75914)
T18 construct: purchased ProQinase GmbH (Reaction Biology); host or cells: Sf9 insect cells or E. coli (not specified per kinase)
T18 sequence (O75914 whole entry): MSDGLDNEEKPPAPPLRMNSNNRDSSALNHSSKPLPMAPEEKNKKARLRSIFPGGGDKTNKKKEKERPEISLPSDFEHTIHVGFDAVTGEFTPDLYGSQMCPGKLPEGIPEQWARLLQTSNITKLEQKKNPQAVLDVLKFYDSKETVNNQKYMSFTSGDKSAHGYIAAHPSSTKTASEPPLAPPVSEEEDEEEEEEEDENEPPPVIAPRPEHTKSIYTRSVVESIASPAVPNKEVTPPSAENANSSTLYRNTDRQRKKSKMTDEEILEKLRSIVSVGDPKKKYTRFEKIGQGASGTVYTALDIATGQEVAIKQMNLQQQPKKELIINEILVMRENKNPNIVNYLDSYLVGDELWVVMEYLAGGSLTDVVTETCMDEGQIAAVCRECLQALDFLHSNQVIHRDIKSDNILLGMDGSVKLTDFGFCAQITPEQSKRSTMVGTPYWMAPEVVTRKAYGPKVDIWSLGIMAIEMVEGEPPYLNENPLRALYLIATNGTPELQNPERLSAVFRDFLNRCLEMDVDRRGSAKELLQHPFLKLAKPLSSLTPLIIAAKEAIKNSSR
Procedure: as §1, §2

PDK1 = molecular target: T19, PDK1 (Homo sapiens, UniProt O15530)
T19 construct: either as full-length or enzymatically active fragments; purchased ProQinase GmbH (Reaction Biology)
T19 sequence (O15530 whole entry, the tested form may be a part): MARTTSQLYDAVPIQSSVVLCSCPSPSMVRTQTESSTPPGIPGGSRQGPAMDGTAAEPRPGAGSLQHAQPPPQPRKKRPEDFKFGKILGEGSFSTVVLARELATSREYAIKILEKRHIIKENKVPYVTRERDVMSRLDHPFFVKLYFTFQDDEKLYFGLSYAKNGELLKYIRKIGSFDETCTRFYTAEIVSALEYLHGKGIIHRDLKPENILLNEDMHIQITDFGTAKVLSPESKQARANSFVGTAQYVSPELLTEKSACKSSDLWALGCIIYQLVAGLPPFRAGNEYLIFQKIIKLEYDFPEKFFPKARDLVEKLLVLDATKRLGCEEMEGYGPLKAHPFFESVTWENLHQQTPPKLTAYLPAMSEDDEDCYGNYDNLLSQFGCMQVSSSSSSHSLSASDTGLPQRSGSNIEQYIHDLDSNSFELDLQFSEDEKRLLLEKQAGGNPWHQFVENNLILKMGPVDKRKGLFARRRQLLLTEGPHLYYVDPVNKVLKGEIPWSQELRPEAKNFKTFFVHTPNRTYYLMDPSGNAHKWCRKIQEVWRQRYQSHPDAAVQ
Procedure: as §1, §2

PIM3 = molecular target: T20, PIM3 (Homo sapiens, UniProt Q86V86)
T20 construct: either as full-length or enzymatically active fragments; purchased ProQinase GmbH (Reaction Biology)
Procedure: as §1, §2

PKCmu = molecular target: T21, PKCmu (Homo sapiens, UniProt Q15139)
T21 construct: either as full-length or enzymatically active fragments; purchased ProQinase GmbH (Reaction Biology)
Procedure: as §1, §2

PKCtheta = molecular target: T22, PKCtheta (Homo sapiens, UniProt Q04759)
T22 construct: purchased ProQinase GmbH (Reaction Biology); host or cells: Sf9 insect cells or E. coli (not specified per kinase)
T22 sequence (Q04759 whole entry): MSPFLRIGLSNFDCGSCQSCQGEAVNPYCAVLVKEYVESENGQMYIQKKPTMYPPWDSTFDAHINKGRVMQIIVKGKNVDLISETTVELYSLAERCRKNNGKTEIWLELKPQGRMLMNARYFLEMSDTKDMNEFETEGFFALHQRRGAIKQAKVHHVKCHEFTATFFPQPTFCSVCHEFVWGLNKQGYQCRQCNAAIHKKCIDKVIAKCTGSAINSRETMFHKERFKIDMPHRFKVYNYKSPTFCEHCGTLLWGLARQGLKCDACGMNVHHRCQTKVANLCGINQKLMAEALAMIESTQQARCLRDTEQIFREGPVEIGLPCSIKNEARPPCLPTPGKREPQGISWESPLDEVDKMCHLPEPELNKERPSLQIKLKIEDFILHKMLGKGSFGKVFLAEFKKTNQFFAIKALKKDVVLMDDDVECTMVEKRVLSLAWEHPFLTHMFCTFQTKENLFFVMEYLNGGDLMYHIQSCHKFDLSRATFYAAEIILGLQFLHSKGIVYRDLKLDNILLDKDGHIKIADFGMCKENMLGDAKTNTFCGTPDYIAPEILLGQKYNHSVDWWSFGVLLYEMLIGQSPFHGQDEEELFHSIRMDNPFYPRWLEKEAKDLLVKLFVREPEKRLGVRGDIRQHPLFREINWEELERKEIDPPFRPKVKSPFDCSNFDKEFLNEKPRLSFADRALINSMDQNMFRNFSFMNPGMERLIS
Procedure: as §1, §2

PYK2 = molecular target: T23, PYK2 (Homo sapiens, UniProt Q14289)
T23 construct: either as full-length or enzymatically active fragments; purchased ProQinase GmbH (Reaction Biology)
Procedure: as §1, §2

RIPK4 = molecular target: T24, RIPK4 (Homo sapiens, UniProt P57078)
T24 construct: either as full-length or enzymatically active fragments; purchased ProQinase GmbH (Reaction Biology)
Procedure: as §1, §2

SGK2 = molecular target: T25, SGK2 (Homo sapiens, UniProt Q9HBY8)
T25 construct: purchased ProQinase GmbH (Reaction Biology); host or cells: Sf9 insect cells or E. coli (not specified per kinase)
Procedure: as §1, §2

SNARK = molecular target: T26, SNARK (Homo sapiens, UniProt Q9H093)
T26 construct: purchased ProQinase GmbH (Reaction Biology)
Procedure: as §1, §2

SRMS = molecular target: T27, SRMS (Homo sapiens, UniProt Q9H3Y6)
T27 construct: purchased ProQinase GmbH (Reaction Biology)
Procedure: as §1, §2

STK25 = molecular target: T28, STK25 (Homo sapiens, UniProt O00506)
T28 construct: either as full-length or enzymatically active fragments; purchased ProQinase GmbH (Reaction Biology)
Procedure: as §1, §2

TSK2 = molecular target: T29, TSK2 (Homo sapiens, UniProt Q96PF2)
T29 construct: purchased ProQinase GmbH (Reaction Biology)
T29 sequence (Q96PF2 whole entry): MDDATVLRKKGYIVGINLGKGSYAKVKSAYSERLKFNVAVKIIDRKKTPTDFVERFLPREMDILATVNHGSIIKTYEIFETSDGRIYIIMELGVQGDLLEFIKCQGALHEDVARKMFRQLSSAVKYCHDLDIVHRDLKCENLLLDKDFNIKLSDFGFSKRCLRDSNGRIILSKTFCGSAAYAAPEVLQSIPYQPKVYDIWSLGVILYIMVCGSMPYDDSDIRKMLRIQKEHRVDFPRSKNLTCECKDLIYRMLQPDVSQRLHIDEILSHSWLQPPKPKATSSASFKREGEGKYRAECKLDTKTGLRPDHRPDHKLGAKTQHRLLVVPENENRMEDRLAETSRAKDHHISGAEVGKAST
Procedure: as §1, §2

TSSK1 = molecular target: T30, TSSK1 (Homo sapiens, UniProt Q9BXA7)
T30 construct: either as full-length or enzymatically active fragments; purchased ProQinase GmbH (Reaction Biology)
T30 sequence (Q9BXA7 whole entry, the tested form may be a part): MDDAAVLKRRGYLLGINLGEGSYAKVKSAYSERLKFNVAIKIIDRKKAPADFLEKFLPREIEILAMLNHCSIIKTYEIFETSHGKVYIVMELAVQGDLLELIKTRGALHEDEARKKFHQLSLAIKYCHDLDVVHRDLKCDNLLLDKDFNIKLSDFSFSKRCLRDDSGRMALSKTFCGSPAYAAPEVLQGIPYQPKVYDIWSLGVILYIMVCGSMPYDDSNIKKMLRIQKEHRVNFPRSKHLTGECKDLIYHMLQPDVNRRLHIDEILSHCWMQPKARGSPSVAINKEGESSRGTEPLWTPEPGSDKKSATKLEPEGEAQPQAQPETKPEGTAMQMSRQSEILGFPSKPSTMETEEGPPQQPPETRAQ
Procedure: as §1, §2

WNK1 = molecular target: T31, WNK1 (Homo sapiens, UniProt Q9H4A3)
T31 construct: either as full-length or enzymatically active fragments; purchased ProQinase GmbH (Reaction Biology)
Procedure: as §1, §2

Compound: C=CC(=O)Nc1ccc(C(=O)N2CC[C@@H](Nc3ncc(C#N)cn3)C2)cc1 [Compound 4, (R)-N-(4-(3-((5-cyanopyrimidin-2-yl)amino)pyrrolidine-1-carbonyl)phenyl)acrylamide]
- inhibition at 1 µM (ARK5): 10%
- inhibition at 1 µM (CAMK2G): 5%
- inhibition at 1 µM (CDK1/CycE1): 11%
- inhibition at 1 µM (CDK6/CycD3): 14%
- inhibition at 1 µM (DDR2): -9%
- inhibition at 1 µM (EPHB2): 1%
- inhibition at 1 µM (FGFR1): 3%
- inhibition at 1 µM (FRK): -6%
- inhibition at 1 µM (GRK7): -5%
- inhibition at 1 µM (HIPK2): 0%
- inhibition at 1 µM (IGF1R): -23%
- inhibition at 1 µM (IKKepsilon): 7%
- inhibition at 1 µM (INSRR): 5%
- inhibition at 1 µM (JNK1): 3%
- inhibition at 1 µM (LIMK2): -3%
- inhibition at 1 µM (MAP3K11): -7%
- inhibition at 1 µM (MAP3K9): -4%
- inhibition at 1 µM (PAK3): 1%
- inhibition at 1 µM (PDK1): -7%
- inhibition at 1 µM (PIM3): 4%
- inhibition at 1 µM (PKCmu): 3%
- inhibition at 1 µM (PKCtheta): 1%
- inhibition at 1 µM (PYK2): 4%
- inhibition at 1 µM (RIPK4): -3%
- inhibition at 1 µM (SGK2): 1%
- inhibition at 1 µM (SNARK): 0%
- inhibition at 1 µM (SRMS): -2%
- inhibition at 1 µM (STK25): 7%
- inhibition at 1 µM (TSK2): -1%
- inhibition at 1 µM (TSSK1): -10%
- inhibition at 1 µM (WNK1): 17%

— US20230074545A1, “TREATMENT OF CANCER WITH CDK12/13 INHIBITORS” (Kinnate Biopharma Inc., priority 2019, published 2023)
